Test results reported in US4654348A, “Pyrazolo[4,3-d]pyrimidine derivative, process for its production, antihyperlipidemic agent containing it, its intermediate, and process for the production of the intermediate” (Nissan Chemical Industries Ltd., priority 1984, dated 1987).

Experiments:
[1] = tested on: emulsion-induced hyperlipidemic rats; assay: Test 1: antihyperlipidemic activity in emulsion-induced hyperlipidemic rats (serum Chol, HDL-Chol, liver weight); format: in vivo, male S.D. rats; settings: 3 days, vs control; for Degree of hepatomegaly (change rate of the liver weight): liver weight per 100 g body weight, 300 mg/kg/day
Experimental: The antihyperlipidemic activity in emulsion-induced hyperlipidemic rats:
Male S.D. rats weighing 80-90 g (4 weeks old) were used. They were divided into groups of 5 to 6 rats each. The test compounds suspended in 0.5% CMC-Na(carboxymethyl cellulose sodium salt) were given to the rats in a daily dose of 4 ml/kg (i.e. 300 mg/kg of the test compounds) via stomach tube every 10:00 a.m. After 30 min., lipids emulsion having the following composition was orally given to the rats in an amount of 2.5 ml per rat.
Cholic acid sodium salt 10.0 g
During the experimental period of 3 days, the rats were fed on a standard commercial diet and water ad libitum. […] The total cholesterol and HDL cholesterol were measured.
The weight of the liver was measured. To the control group, only the aqueous CMC-Na solution and the lipids emulsion were given.
The fractionation of lipoproteins was conducted by a dextran sulfate-MgCl2 precipitation method.
Cholesterol in serum was measured by means of a cholesterol measuring kit (Cholesterol C-Test Wako, manufactured by Wako Junyaku Co., Ltd.), and cholesterol in HDL was measured by means of NC Hi-Set, manufactured by Nippon Chemiphar Co., Ltd.
Further, the reduction rate of Chol was calculated by the following equation. [formula] where A is the amount of serum Chol (mg/dl) of the control group, and B is the amount of serum Chol (mg/dl) of the group to which the therapeutic agent was administered.
Likewise, the increase rate of HDL-Chol was calculated by the following equation. [formula] where C is the amount of serum HDL-Chol (mg/dl) of the control group, and D is the amount of serum HDL-Chol (mg/dl) of the group to which the therapeutic agent was administered.
The degree of hepatomegaly (i.e. the change rate of the liver weight) was calculated by the following equation. [formula] where E is the liver weight (g) per 100 g of the body weight of the control group, and F is the liver weight (g) per 100 g of the body weight of the group to which the therapeutic agent was administered.

male ddY mice = assay: Test 2: Acute toxicity (mortality after seven days); format: in vivo; settings: 8000 mg/kg p.o., 10080 min
Experimental: The test compounds suspended in 0.5% CMC-Na were administered p.o. to male ddY mice. The acute toxicity was determined based on the mortality after seven days. In respect of the compounds of Examples 1, 9, 10 and 11 of the present invention, the mortality was 0% even at a dose of as high as 8000 mg/kg by oral administration.

serum lipid = settings: Science, 193, 903 (1976); J. Lipid Res., 12, 596 (1971); cited from earlier work
[2] = in words; cited from earlier work
animals = settings: animal experiments; Svoboda and Azarnoff, Cancer Res., 39, 3419 (1979); cited from earlier work

CC/C=C\C/C=C\C/C=C\CCCCCCCCOc1c2ncnc(SCC(=O)OCC)c2nn1C [Example 11, 2-Methyl-3-linolenyloxy-7-ethoxycarbonylmethylthio-pyrazolo[4,3-d]pyrimidine]
Increase rate of serum HDL-Chol ([1]; 300 mg/kg/day via stomach tube): 26% | Reduction rate of serum Chol. ([1]; 300 mg/kg/day via stomach tube): 83% | Degree of hepatomegaly (change rate of the liver weight) [1]: +20% | mortality (male ddY mice): 0%

Nc1ncnc2[nH]ncc12 [1H-pyrazolo[3,4-d]pyrimidine-4-amine]
serum lipid reduction (serum lipid): function to reduce serum lipid

CCOC(=O)C(C)(C)Oc1ccc(Cl)cc1 [Clofibrate, reference compound]
change in vivo at 300 mg/kg ([1]; Rattus norvegicus, po, 72 h, 300 mg/kg/day via stomach tube, read-out: Increase rate of serum HDL-Chol): 12% | inhibition in vivo at 300 mg/kg ([1]; Rattus norvegicus, po, 72 h, 300 mg/kg/day via stomach tube, read-out: Reduction rate of serum Chol.): 44% | Degree of hepatomegaly (change rate of the liver weight) [1]: +22% | subsidiary ill effects reported [2]: myalgia or hepatic insufficiency, and they are likely to lead to gallstone formation | hepatic carcinoma (animals): brings about hepatic carcinoma on animal experiments
